Source: patent US12696900B2, “Crop enhancement” (SYNGENTA CROP PROTECTION AG, priority 2020, dated 2026)

Key:
[1] = test system: Corn seeds (var. NK Falkone); test: Corn germination test (24 well plates, kinetic analysis of germination); assay type: in vivo; settings: for Plateau of Germination (total percentage of germinated seeds), Sign. / Time taken to reach 50% germination of corn, Sign. / Uniformity of Germination (slope of the curve), Sign.: significance vs untreated, p<0.05, ns=not significant; for Plateau of Germination (total percentage of germinated seeds), total % of germinated seeds / Time taken to reach 50% germination of corn, Relative T50 / Uniformity of Germination (slope of the curve), Relative slope: untreated = 100
Protocol: Corn seeds (var. NK Falkone, Syngenta Seeds SAS, St. Sauveur, France) were sorted by size using a sieve to eliminate round seeds. The corn seeds were placed in 24 well plates (1 seed per well; each plate was considered as one experimental unit or replicate). Germination was initiated by the addition of 250 μl of distilled water containing 0.5% dimethyl sulfoxide (DMSO) to each well (with isocycloseram present at a concentration of either 1, 5, 25 or 125 μM). 8 replicates (i.e. 8 plates) were used for each treatment characterisation. The plates were sealed using seal foil (Polyolefin Art. Nr. 900320) from HJ-BIOANALYTIK. All plates were placed in a climatic chamber at either 15° C. or 23° C., with 60% Relative Humidity. The experiment was laid out in a completely randomized design. Germination was followed over time by taking photographs at different time points. Image analysis was performed automatically with a macro which was developed using the Image J software. A kinetic analysis of germination was carried out by fitting a trend curve. Three parameters were calculated from the trend curve: the T50 (time taken for 50% germination; related to speed of germination); the slope of the curve (the uniformity of germination) and the plateau (the total percentage of germinated seeds). […] The results are expressed in terms of percentage in comparison to the control (untreated seeds) for each temperature group respectively. The results were analysed statistically to highlight significant differences (p<0.05). (Key: Sign.=significance; ns=not significant)
All three parameters have a high agronomical relevance. Significant differences between treated seeds and untreated control are given at p<0.05 (Anova). T50 corresponds to the time needed for half of the seed population to germinate; lower values indicate faster germination. Slope indicates how synchronous the germination of the seed population is; values greater than 100 indicate a steeper curve. The steeper the curve, the better and more uniform the germination is. […] At the two highest rates, the speed of germination (T50) was faster at both temperatures, indicating a positive impact on germination speed.

[2] = test system: Wheat seeds (winter wheat variety Syllon); test: Wheat germination test under increased salinity (salt stress); assay type: in vivo; settings: for Time taken to reach 50% germination of wheat, Sign. / Time taken to reach 50% germination of wheat, Relative T50: increased salinity, 12.5 mM NaCl solution, 23° C.; for Time taken to reach 50% germination of wheat, Sign.: significance vs untreated, p<0.05; for Time taken to reach 50% germination of wheat, Relative T50: untreated = 100
Protocol: Wheat seeds (winter wheat variety Syllon, Syngenta Seeds) were placed in 24 well plates (1 seed per well, each plate was considered as one experimental unit or replicate). […] Subsequently, a salt solution was prepared at this concentration and spiked with the test compound at different rates as shown below in Table 3, and the germination test was repeated under salt stress. Eight replicates (i.e. 8 plates) were used for each treatment. Plates were sealed with seal foil (Polyolefin Art. Nr. 900320) from HJ-BIOANALYTIK. All plates were placed in a climatic chamber at 23° C. with 70% Relative Humidity. The experiment was laid out in a completely randomized design. Germination was followed over time by taking photographs at different time points. Image analysis was performed automatically with a macro which was developed using the Image J software. A kinetic analysis of germination was carried out by fitting a trend curve. Three parameters were calculated from the trend curve: the T50 (time taken for 50% germination; speed of germination); the slope of the curve (the uniformity of germination) and the plateau (the total percentage of germinated seeds). […] The results are expressed in terms of percentage in comparison to the check (untreated seeds) and the results are analysed statistically to highlight significant differences (p<0.05). (Key: Sign.=significance)
T50 corresponds to the time needed for half of the seed population to germinate and is a germination parameter of high agronomical relevance. Significant differences between treated seeds and untreated control are given at p<0.05 (Anova). Lower values indicate faster germination.

[3] = 15° C. (cold conditions), isocycloseram 1 μM
[4] = 15° C. (cold conditions), isocycloseram 5 μM
[5] = 15° C. (cold conditions), isocycloseram 25 μM
[6] = 15° C. (cold conditions), isocycloseram 125 μM
[7] = 23° C. (normal conditions), isocycloseram 1 μM
[8] = 23° C. (normal conditions), isocycloseram 5 μM
[9] = 23° C. (normal conditions), isocycloseram 25 μM
[10] = 23° C. (normal conditions), isocycloseram 125 μM

`CCN1OCC(NC(=O)c2ccc(C3=NOC(c4cc(Cl)c(F)c(Cl)c4)(C(F)(F)F)C3)cc2C)C1=O` (stereo not shown) [Isocycloseram, isocycloseram] was tested, and the “Plateau of Germination (total percentage of germinated seeds), Sign.” value [1, 3] was “ns”, the “Time taken to reach 50% germination of corn, Sign.” value [1, 3] was “ns” and the “Uniformity of Germination (slope of the curve), Sign.” value [1, 3] was “ns”. For the same molecule, the “Plateau of Germination (total percentage of germinated seeds), total % of germinated seeds” value [1, 3] was 103 percentage in comparison to the control, the “Time taken to reach 50% germination of corn, Relative T50” value [1, 3] was 99.67 percentage in comparison to the control and the “Uniformity of Germination (slope of the curve), Relative slope” value (from here on “Uniformity of Germination … Relative slope”) [1, 3] was 100 percentage in comparison to the control. The “Plateau of Germination (total percentage of germinated seeds), Sign.” value [1, 4] was “higher”, the “Time taken to reach 50% germination of corn, Sign.” value [1, 4] was “ns” and the “Uniformity of Germination (slope of the curve), Sign.” value [1, 4] was “ns”. For the same molecule, the “Plateau of Germination (total percentage of germinated seeds), total % of germinated seeds” value [1, 4] was 105 percentage in comparison to the control, the “Time taken to reach 50% germination of corn, Relative T50” value [1, 4] was 101.73 percentage in comparison to the control and the “Uniformity of Germination … Relative slope” value [1, 4] was 98 percentage in comparison to the control. For the same molecule, the “Plateau of Germination (total percentage of germinated seeds), Sign.” value [1, 5] was “higher”, the “Time taken to reach 50% germination of corn, Sign.” value [1, 5] was “Faster” and the “Uniformity of Germination (slope of the curve), Sign.” value [1, 5] was “more”. For the same molecule, the “Plateau of Germination (total percentage of germinated seeds), total % of germinated seeds” value [1, 5] was 106 percentage in comparison to the control, the “Time taken to reach 50% germination of corn, Relative T50” value [1, 5] was 93.1 percentage in comparison to the control and the “Uniformity of Germination … Relative slope” value [1, 5] was 233 percentage in comparison to the control. The “Plateau of Germination (total percentage of germinated seeds), Sign.” value [1, 6] was “higher”, the “Time taken to reach 50% germination of corn, Sign.” value [1, 6] was “Faster” and the “Uniformity of Germination (slope of the curve), Sign.” value [1, 6] was “more”. The “Plateau of Germination (total percentage of germinated seeds), total % of germinated seeds” value [1, 6] was 105 percentage in comparison to the control, the “Time taken to reach 50% germination of corn, Relative T50” value [1, 6] was 90.61 percentage in comparison to the control and the “Uniformity of Germination … Relative slope” value [1, 6] was 191 percentage in comparison to the control. For the same molecule, the “Plateau of Germination (total percentage of germinated seeds), Sign.” value [1, 7] was “ns”, the “Time taken to reach 50% germination of corn, Sign.” value [1, 7] was “Slower” and the “Uniformity of Germination (slope of the curve), Sign.” value [1, 7] was “less”. For the same molecule, the “Plateau of Germination (total percentage of germinated seeds), total % of germinated seeds” value [1, 7] was 103.63 percentage in comparison to the control, the “Time taken to reach 50% germination of corn, Relative T50” value [1, 7] was 107.32 percentage in comparison to the control and the “Uniformity of Germination … Relative slope” value [1, 7] was 80.22 percentage in comparison to the control. For the same molecule, the “Plateau of Germination (total percentage of germinated seeds), Sign.” value [1, 8] was “ns”, the “Time taken to reach 50% germination of corn, Sign.” value [1, 8] was “Slower” and the “Uniformity of Germination (slope of the curve), Sign.” value [1, 8] was “ns”. For the same molecule, the “Plateau of Germination (total percentage of germinated seeds), total % of germinated seeds” value [1, 8] was 103.63 percentage in comparison to the control, the “Time taken to reach 50% germination of corn, Relative T50” value [1, 8] was 105.17 percentage in comparison to the control and the “Uniformity of Germination … Relative slope” value [1, 8] was 93.8 percentage in comparison to the control. For the same molecule, the “Plateau of Germination (total percentage of germinated seeds), Sign.” value [1, 9] was “higher”, the “Time taken to reach 50% germination of corn, Sign.” value [1, 9] was “Faster” and the “Uniformity of Germination (slope of the curve), Sign.” value [1, 9] was “more”. For the same molecule, the “Plateau of Germination (total percentage of germinated seeds), total % of germinated seeds” value [1, 9] was 105.39 percentage in comparison to the control, the “Time taken to reach 50% germination of corn, Relative T50” value [1, 9] was 95.22 percentage in comparison to the control and the “Uniformity of Germination … Relative slope” value [1, 9] was 133.81 percentage in comparison to the control. For the same molecule, the “Plateau of Germination (total percentage of germinated seeds), Sign.” value [1, 10] was “ns”, the “Time taken to reach 50% germination of corn, Sign.” value [1, 10] was “Faster” and the “Uniformity of Germination (slope of the curve), Sign.” value [1, 10] was “more”. The “Plateau of Germination (total percentage of germinated seeds), total % of germinated seeds” value [1, 10] was 100.7 percentage in comparison to the control, the “Time taken to reach 50% germination of corn, Relative T50” value [1, 10] was 92.47 percentage in comparison to the control and the “Uniformity of Germination … Relative slope” value [1, 10] was 176.64 percentage in comparison to the control. For the same molecule, the “changes in germination rate and uniformity (corn)” value ([1]; isocycloseram 1, 5, 25 and 125 μM, 15° C. or 23° C., especially under the colder conditions and higher concentrations) was “significant changes in germination rate and uniformity”, the “effect on corn seed germination kinetics” value ([1]; low temperature (15° C.)) was “consistent effect” and the “effect on wheat seed germination kinetics” value ([2]; increased salinity (salt stress)) was “consistent effect”. The “Time taken to reach 50% germination of wheat, Sign.” value ([2]; isocycloseram 1 μM) was “Faster”, the “Time taken to reach 50% germination of wheat, Relative T50” value ([2]; isocycloseram 1 μM) was 95.27 percentage in comparison to the check and the “Time taken to reach 50% germination of wheat, Sign.” value ([2]; isocycloseram 5 μM) was “Faster”. The “Time taken to reach 50% germination of wheat, Relative T50” value ([2]; isocycloseram 5 μM) was 94.70 percentage in comparison to the check, the “Time taken to reach 50% germination of wheat, Sign.” value ([2]; isocycloseram 25 μM) was “Faster” and the “Time taken to reach 50% germination of wheat, Relative T50” value ([2]; isocycloseram 25 μM) was 93.07 percentage in comparison to the check. For the same molecule, the “changes in germination speed (wheat)” value ([2]; isocycloseram 1, 5, and 25 μM, salt stress, 12.5 mM NaCl) was “significant changes in germination speed”.
